Results: ChEMBL document CHEMBL3596122, “Isoform-Selective and Stereoselective Inhibition of Hypoxia Inducible Factor-2” (J Med Chem, 2015)
Calls of active or inactive are those of the source. The rule behind the calls is not given here.

Columns and labels:
[1] = molecular target: T1, Endothelial PAS domain-containing protein 1 (Homo sapiens, UniProt Q99814)
Description: Binding affinity to wild type His6-Gbeta1-fused HIF-2alpha PAS-B domain (240 to 350) (unknown origin) expressed in Escherichia coli by ITC analysis

[2] = molecular target: T2, Endothelial PAS domain-containing protein 1 (Homo sapiens, UniProt Q99814, S304M)
[3] = molecular target: T1, Endothelial PAS domain-containing protein 1; remark: listed apart in the source
Description: Binding affinity to wild type GST-tagged HIF-2alpha PAS-B (240 to 350) (unknown origin) expressed in Escherichia coli assessed as inhibition of interaction with His6-Gbeta1/FLAG fused ARNT PAS-B after 4 hrs by AlphaScreen assay

[4] = molecular target: T1, Endothelial PAS domain-containing protein 1; conditions: Hep 3B2, 0.01 to 10 uM
Description: Inhibition of HIF-2alpha in human Hep3B cells assessed as downregulation of EPO mRNA expression at 0.01 to 10 uM by RT-PCR analysis

[5] = molecular target: Hypoxia-inducible factor 1-alpha (Homo sapiens, UniProt Q16665); experiment: Binding affinity to wild type GST-fused HIF-1alpha PAS-B domain (238 to 349) (unknown origin) expressed in Escherichia coli assessed as compound-protein complex formation by ITC analysis
[6] = molecular target: T1, Endothelial PAS domain-containing protein 1; experiment: Inhibition of HIF-2alpha in human Hep3B cells assessed as downregulation of EPO mRNA expression by RT-PCR analysis
[7] = molecular target: T2, Endothelial PAS domain-containing protein 1; experiment: Binding affinity to His6-Gbeta1-fused HIF-2alpha PAS-B domain S304M mutant (240 to 350) (unknown origin) expressed in Escherichia coli by ITC analysis
[8] = test system: Hep 3B2; experiment: Effect on HIF-1-mediated PGK1 mRNA expression in human Hep3B cells at 0.01 to 10 uM by RT-PCR analysis; type: cell-based

T1 sequence (Q99814 whole entry, the tested form may be a part): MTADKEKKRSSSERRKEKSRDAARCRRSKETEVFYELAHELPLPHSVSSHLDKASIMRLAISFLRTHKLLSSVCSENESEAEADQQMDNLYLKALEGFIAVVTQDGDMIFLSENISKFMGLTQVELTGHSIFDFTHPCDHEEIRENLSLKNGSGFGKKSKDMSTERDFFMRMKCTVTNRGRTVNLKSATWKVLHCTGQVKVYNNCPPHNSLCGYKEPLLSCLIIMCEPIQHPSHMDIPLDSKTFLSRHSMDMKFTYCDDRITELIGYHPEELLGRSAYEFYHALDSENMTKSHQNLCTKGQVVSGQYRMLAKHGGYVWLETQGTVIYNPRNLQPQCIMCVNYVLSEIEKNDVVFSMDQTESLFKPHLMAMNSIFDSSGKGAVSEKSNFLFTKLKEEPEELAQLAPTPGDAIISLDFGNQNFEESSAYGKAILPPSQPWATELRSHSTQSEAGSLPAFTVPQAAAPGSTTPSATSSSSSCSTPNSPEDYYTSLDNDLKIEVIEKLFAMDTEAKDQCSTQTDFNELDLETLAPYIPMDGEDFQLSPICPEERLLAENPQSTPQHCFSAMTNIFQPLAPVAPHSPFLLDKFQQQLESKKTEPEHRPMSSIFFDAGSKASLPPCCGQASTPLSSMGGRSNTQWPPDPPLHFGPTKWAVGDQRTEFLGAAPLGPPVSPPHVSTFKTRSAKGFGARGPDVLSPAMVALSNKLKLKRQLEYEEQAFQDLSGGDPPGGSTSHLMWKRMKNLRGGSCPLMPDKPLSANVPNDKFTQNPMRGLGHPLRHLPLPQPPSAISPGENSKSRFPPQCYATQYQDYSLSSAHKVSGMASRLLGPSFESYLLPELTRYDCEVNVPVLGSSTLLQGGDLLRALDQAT
T2 sequence (Q99814 whole entry S304M, the tested form may be a part): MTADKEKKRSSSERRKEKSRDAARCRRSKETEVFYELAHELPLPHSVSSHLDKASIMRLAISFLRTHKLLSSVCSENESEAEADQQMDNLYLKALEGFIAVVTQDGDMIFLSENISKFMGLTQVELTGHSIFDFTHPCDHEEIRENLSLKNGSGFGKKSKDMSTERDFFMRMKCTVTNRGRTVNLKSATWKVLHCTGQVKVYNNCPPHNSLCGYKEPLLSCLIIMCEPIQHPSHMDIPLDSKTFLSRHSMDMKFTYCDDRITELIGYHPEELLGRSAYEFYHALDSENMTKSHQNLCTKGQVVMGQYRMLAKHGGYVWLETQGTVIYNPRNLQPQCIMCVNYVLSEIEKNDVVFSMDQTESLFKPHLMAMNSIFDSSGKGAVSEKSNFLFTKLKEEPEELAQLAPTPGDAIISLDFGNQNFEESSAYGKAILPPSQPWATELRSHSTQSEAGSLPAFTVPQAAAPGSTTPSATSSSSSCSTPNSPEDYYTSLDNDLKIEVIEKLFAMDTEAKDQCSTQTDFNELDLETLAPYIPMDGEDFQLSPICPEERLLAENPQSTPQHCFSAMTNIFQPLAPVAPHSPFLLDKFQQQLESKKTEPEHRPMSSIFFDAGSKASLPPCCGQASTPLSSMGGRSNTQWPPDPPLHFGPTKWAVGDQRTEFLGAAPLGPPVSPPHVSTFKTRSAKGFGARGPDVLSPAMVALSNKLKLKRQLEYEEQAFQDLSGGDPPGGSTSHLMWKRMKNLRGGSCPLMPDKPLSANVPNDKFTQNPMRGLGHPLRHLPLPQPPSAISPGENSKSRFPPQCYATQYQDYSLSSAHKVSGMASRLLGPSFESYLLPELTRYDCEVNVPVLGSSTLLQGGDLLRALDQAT
Sequence of Hypoxia-inducible factor 1-alpha (Q16665 whole entry, the tested form may be a part): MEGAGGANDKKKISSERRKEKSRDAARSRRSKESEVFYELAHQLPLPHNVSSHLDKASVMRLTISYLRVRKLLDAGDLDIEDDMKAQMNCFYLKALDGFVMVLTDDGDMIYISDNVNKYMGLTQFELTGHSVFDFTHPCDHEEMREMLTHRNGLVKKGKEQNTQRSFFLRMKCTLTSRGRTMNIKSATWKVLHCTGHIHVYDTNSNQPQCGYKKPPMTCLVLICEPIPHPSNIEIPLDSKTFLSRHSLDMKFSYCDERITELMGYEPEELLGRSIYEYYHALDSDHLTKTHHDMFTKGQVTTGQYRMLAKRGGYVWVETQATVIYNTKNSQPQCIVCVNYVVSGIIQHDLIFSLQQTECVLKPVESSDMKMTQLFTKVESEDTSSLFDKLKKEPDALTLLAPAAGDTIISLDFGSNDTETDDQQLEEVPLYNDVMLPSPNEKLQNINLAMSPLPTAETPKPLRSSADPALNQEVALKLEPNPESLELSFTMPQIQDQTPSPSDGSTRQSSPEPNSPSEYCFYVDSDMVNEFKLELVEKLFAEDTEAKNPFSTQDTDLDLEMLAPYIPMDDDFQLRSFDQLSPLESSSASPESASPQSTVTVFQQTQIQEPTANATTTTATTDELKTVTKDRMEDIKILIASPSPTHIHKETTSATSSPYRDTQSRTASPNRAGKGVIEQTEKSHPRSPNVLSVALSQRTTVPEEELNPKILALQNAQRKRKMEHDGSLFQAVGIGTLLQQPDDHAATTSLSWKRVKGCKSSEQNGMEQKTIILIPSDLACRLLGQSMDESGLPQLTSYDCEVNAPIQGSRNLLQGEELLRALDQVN

| SMILES | Kd [1] | IC50 [2] | IC50 [3] | further results |
| --- | --- | --- | --- | --- |
| Fc1ccc(Br)c(F)c1C1CC(c2cccc(Br)c2)Nc2nnnn21 (racemic) | 49 nM | – | – | – |
| Fc1c(Cl)ccc(Cl)c1C1CC(c2cccc(Br)c2)Nc2nnnn21 (racemic) | 194 nM | – | – | – |
| Fc1ccccc1C1CC(c2cccc(Br)c2)Nc2nnnn21 (racemic) | 327 nM | – | – | – |
| Brc1cccc([C@@H]2C[C@H](c3cccc(Br)c3)n3nnnc3N2)c1 | 63 nM | > 30000 nM | 112 nM | – |
| Brc1cccc(C2CC(c3ccccc3Br)n3nnnc3N2)c1 (racemic) | 400 nM | – | – | – |
| Fc1c(Br)ccc(Br)c1C1CC(c2cccc(Br)c2)Nc2nnnn21 (racemic) | 240 nM | – | – | – |
| Fc1cc(Br)cc([C@H]2C[C@@H](c3cccc(Br)c3)n3nnnc3N2)c1 | > 2000 nM | > 30000 nM | > 30000 nM | inhibition [4]: inactive |
| Fc1cc(Br)cc(C2CC(c3cccc(Br)c3)n3nnnc3N2)c1 (racemic) | 28 nM | – | – | – |
| Clc1ccccc1[C@H]1C[C@@H](c2cccc(Br)c2)Nc2nnnn21 | 294 nM | 15900 nM | 195 nM | – |
| Brc1cccc(C2CC(c3cccc(Br)c3)n3nnnc3N2)c1 (racemic) | 70 nM | – | – | – |
| Clc1ccc(Br)cc1[C@@H]1C[C@H](c2cccc(Br)c2)Nc2nnnn21 | > 2000 nM | > 30000 nM | > 30000 nM | – |
| Fc1cc(Br)cc([C@@H]2C[C@H](c3ccccc3)n3nnnc3N2)c1 | 165 nM | 10100 nM | 97 nM | – |
| Clc1ccccc1[C@@H]1C[C@H](c2cccc(Br)c2)Nc2nnnn21 | > 2000 nM | > 30000 nM | > 30000 nM | – |
| Fc1ccc(F)c(C2CC(c3cccc(Br)c3)Nc3nnnn32)c1F (racemic) | 393 nM | – | – | – |
| Fc1c(Br)ccc(Cl)c1C1CC(c2cccc(Br)c2)Nc2nnnn21 (racemic) | 85 nM | – | – | – |
| Fc1ccc(I)cc1C1CC(c2cccc(Br)c2)Nc2nnnn21 (racemic) | 159 nM | – | – | – |
| Fc1c(Cl)cccc1C1CC(c2cccc(Br)c2)Nc2nnnn21 (racemic) | 38 nM | – | – | – |
| Brc1cccc([C@H]2C[C@@H](c3ccccc3Br)n3nnnc3N2)c1 | > 2000 nM | > 30000 nM | 28300 nM | – |

Second part, led by results:

| Kd [1] | IC50 [2] | IC50 [3] | SMILES | further results |
| --- | --- | --- | --- | --- |
| 85 nM | – | – | Fc1ccc(Cl)c(F)c1C1CC(c2cccc(Br)c2)Nc2nnnn21 (racemic) | – |
| 216 nM | – | – | Fc1cc(Br)cc(C2CC(c3ccccc3)n3nnnc3N2)c1 (racemic) | – |
| 116 nM | – | – | Clc1cccc(C2CC(c3cccc(Br)c3)Nc3nnnn32)c1 (racemic) | – |
| 126 nM | – | – | Clc1ccc(Br)cc1C1CC(c2cccc(Br)c2)Nc2nnnn21 (racemic) | – |
| > 2000 nM | > 30000 nM | > 30000 nM | Brc1cccc([C@H]2C[C@@H](c3cccc(Br)c3)n3nnnc3N2)c1 | – |
| 125 nM | 23900 nM | 87 nM | Clc1ccc(Br)cc1[C@H]1C[C@@H](c2cccc(Br)c2)Nc2nnnn21 | – |
| > 2000 nM | > 30000 nM | > 30000 nM | Fc1cc(Br)cc([C@H]2C[C@@H](c3ccccc3)n3nnnc3N2)c1 | – |
| > 2000 nM | > 30000 nM | 22300 nM | Fc1ccc(Br)c(F)c1[C@@H]1C[C@H](c2cccc(Br)c2)Nc2nnnn21 | – |
| 34 nM | 3800 nM | 32 nM | Fc1ccc(Br)c(F)c1[C@H]1C[C@@H](c2cccc(Br)c2)Nc2nnnn21 | – |
| 360 nM | 18900 nM | 314 nM | Brc1cccc([C@@H]2C[C@H](c3ccccc3Br)n3nnnc3N2)c1 | – |
| 361 nM | – | – | Clc1ccccc1C1CC(c2cccc(Br)c2)Nc2nnnn21 (racemic) | – |
| 411 nM | – | – | Fc1ccc(Br)c(Cl)c1C1CC(c2cccc(Br)c2)Nc2nnnn21 (racemic) | – |
| 23 nM | 14500 nM | 43 nM | Fc1cc(Br)cc([C@@H]2C[C@H](c3cccc(Br)c3)n3nnnc3N2)c1 | Kd [5]: > 5000 nM; IC50 [6]: < 1000 nM; Kd [7]: 2000 nM; Activity [8]: inactive |
| 1170 nM | – | – | CC(C)CC1CC(c2cccc(Br)c2)Nc2nnnn21 (racemic) | – |
| 766 nM | – | – | Brc1cccc(C2CC(c3ccccc3I)n3nnnc3N2)c1 (racemic) | – |
